In article doi:10.1101/2020.07.20.212142v1 (bioRxiv, 2020):

Experiments:
[1] = tested on: NIH 3T3 cells; assay: NIH 3T3 peptide permeation by live-cell confocal microscopy; assay type: cell-based, mouse; details: live NIH 3T3 cells; 5 µM TAMRA-labeled peptide, Opti-mem + 2% FBS, 3 hours, 37°C
[2] = tested on: dechorionated Drosophila melanogaster hosts; assay type: in vivo; details: dechorionated-only hosts; 20 µM peptide overnight, room temperature

Row | Substance | permeation by confocal fluorescence microscopy [1] | partial loss of viability observed (in words) [2]
1 | TAMRA-GEGEGEG | no permeation was detected | –
2 | TAMRA-MRKRHASRREK | spare punctuate fluorescence | –
3 | TAMRA-RRRRRRRRR | spare punctuate fluorescence | sole exception
4 | cyclo[Glut-MRKRHASRRE-K*]-K(5-TAMRA) (sidechain bridge or staple) | substantially greater permeation | –
